From patent US7348344B2, “Polysubstituted 1,1-pyridyloxycyclopropanamine compounds” (Les Laboratoires Servier, priority 2005, dated 2008)
pKi: −log10 of the molar value.

Columns and labels:
[1] = target: T1, type α4β2 central nicotinic receptors (Rattus norvegicus, UniProt P09483+P12390); test: Displacement of binding of [3H]-cytisine on type α4β2 nicotinic receptors of rat brain; conditions: rat brain membranes
T1 construct: from tissue; host or cells: rat brain membranes
Description: This study, carried out according to the technique described in Molec. Pharmacol., 1990, 39; 9-12, is aimed at determining the affinity of compounds of the present invention for type α4β2 central nicotinic receptors.
Membranes (250 μg/ml) of rat brain are incubated (2 hours, 20° C.) in the presence of a series of concentrations (0.01-10 μM) of each compound of the present invention (diluted starting from a 10 mM stock solution in DMSO) and [^3H]-cytisine (S.A.: 1184 GBq/mmol: 2 nM) in phosphate buffer (NaH2PO4 20 mM, pH 7.4); final volume: 250 μl. The non-specific binding is determined by incubating membranes in the presence of 10 μM of (−)nicotine. The affinity of the compounds of the present invention for type α4β2 central nicotinic receptors is characterised by determination of the Ki.

Wistar rat = test: Social recognition in the Wistar rat; assay type: in vivo; conditions: 10 mg/kg IP, second encounter after 2 hours
From the text: Initially described in 1982 (J. Comp. Physiol., 1982, 96, 1000-1006), the social recognition test has subsequently been proposed by various authors (Psychopharmacology, 1987, 91, 363-368; Psychopharmacology, 1989, 97, 262-268) for studying the mnemocognitive effects of new compounds. The test is based on the natural expression of the olfactory memory of the rat and its natural tendency to forget and allows evaluation of memorisation, by recognition of a young congeneric animal, by an adult rat. A young rat (21 days), taken at random, is placed for 5 minutes in the cage housing an adult rat. With the aid of a video device, the experimenter observes the social recognition behaviour of the adult rat and measures its overall duration. The young rat is then removed from the adult rat's cage and is placed in its own cage until the second introduction. The adult rat is given the compound under test by the intraperitoneal route and, after 2 hours, is again brought into the presence (5 minutes) of the young rat. The social recognition behaviour is then observed again and its duration measured. The assessment criterion is the difference (T2−T1), expressed in seconds, between the “recognition” times of the 2 encounters.

[2] = system: release of acetylcholine in the prefrontal cortex; test: In vivo measurement of the release of acetylcholine by intra-cortical microdialysis in the conscious Wistar rat; design: dose or concentration left out as unconfirmed; conditions: one hour after administration
Description: The systemic administration of nicotine and nicotinic agonists causes an increase, in vivo, of acetylcholine in various regions of the brain (Neurochem. Res., 1996, 21, 1181-1186; Eur. J. Pharmacol., 1998, 351, 181-188; Br. J. Pharmacol., 1999, 127, 1486-1494). A microdialysis probe is implanted in the median prefrontal cortex of male Wistar rats. Six or seven days after they have been implanted, the probes are perfused with Ringer's solution (NaCl 147 mM, KCl 2.7 mM, CaCl2 1.2 mM, MgCl2 1 mM, neostigmine 20 nM) at a flow rate of 1 μl/min, the animal being free to move. After 2 hours in the animal quarters, the product under test is administered by the intraperitoneal route. A group of control animals receives the solvent used for the product. The dialysates (30 μl) are then collected every 30 minutes for 4 hours in order to measure the cortical extra-synaptic concentrations of acetylcholine by means of HPLC with amperometric detection. The results are expressed in pg of acetylcholine/dialysate, and inter-group comparisons are carried out by means of analysis of variance using 2 factors (treatment×time), with measurements being repeated over time.

NMRI mouse = test: Abdominal contractions induced by phenyl-p-benzoquinone (PBQ) in the NMRI mouse; assay type: in vivo; conditions: 10 mg/kg IP
Description: Intraperitoneal administration of an alcoholic solution of PBQ causes abdominal cramps in the mouse (Proc. Soc. Exp. Biol., 1957, 95, 729-731). The cramps are characterised by repeated contractions of the abdominal musculature, accompanied by extension of the hind limbs. Most analgesics antagonise these abdominal cramps (Brit. J. Pharmacol. Chem., 1968, 32, 295-310). At t=0 min., the animals are weighed and the compound being studied is administered by the IP route. A group of control animals is given the solvent used for the compound. At t=30 min., an alcoholic solution of PBQ (0.2%) is administered by the IP route in a volume of 0.25 ml/mouse. Immediately after administration of the PBQ, the animals are placed in cylinders of plexiglass (L=19.5 cm; I.D.=5 cm). From t=35 min. to t=45 min., the animals' reaction is observed and the experimenter notes the total number of abdominal cramps per animal. The results are expressed as the percentage inhibition of the number of abdominal cramps measured in the control animals, at the active dose of the compound studied.

T1 sequence (P09483 31-630): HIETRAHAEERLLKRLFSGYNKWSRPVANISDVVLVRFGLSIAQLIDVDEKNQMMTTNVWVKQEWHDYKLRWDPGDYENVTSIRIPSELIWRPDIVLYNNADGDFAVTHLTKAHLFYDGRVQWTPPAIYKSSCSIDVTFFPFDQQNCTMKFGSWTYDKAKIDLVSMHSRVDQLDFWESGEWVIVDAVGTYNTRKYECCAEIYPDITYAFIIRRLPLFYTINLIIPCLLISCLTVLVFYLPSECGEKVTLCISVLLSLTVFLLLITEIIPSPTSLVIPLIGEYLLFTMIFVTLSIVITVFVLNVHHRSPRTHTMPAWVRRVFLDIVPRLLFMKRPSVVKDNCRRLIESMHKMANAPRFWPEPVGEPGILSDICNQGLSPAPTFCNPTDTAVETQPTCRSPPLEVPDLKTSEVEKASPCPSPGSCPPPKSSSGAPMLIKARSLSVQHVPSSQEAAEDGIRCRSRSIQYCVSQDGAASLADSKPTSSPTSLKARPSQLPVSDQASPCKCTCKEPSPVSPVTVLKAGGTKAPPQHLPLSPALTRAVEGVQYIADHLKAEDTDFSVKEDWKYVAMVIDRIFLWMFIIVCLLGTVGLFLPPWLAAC
T1 sequence (P12390 25-500): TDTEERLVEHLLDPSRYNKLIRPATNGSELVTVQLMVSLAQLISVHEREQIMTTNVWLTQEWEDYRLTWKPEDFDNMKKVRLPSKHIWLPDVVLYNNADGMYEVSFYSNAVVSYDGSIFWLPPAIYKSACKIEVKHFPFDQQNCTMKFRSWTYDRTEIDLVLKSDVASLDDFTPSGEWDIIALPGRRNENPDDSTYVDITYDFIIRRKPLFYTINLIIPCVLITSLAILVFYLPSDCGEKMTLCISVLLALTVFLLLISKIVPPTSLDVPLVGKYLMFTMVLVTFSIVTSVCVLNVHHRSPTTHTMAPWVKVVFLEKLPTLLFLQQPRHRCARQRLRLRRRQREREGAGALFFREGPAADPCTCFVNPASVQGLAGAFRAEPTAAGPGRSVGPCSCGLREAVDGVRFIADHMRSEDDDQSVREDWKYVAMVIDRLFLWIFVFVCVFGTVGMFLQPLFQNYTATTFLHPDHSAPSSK

| SMILES | melting point [°C] | further results |
| --- | --- | --- |
| C[C@H]1C[C@@]1(N)COc1ccc(Cl)nc1.Cl (single isomer, unassigned) | 183 to 186 | – |
| CN[C@@]1(COc2ccc(Cl)nc2)C[C@@H]1C.Cl (single isomer, unassigned) [11] | 185 to 190 | – |
| CN[C@@]1(COc2ccc(Cl)nc2)C[C@@H]1C.Cl (single isomer, unassigned) [12] | 188 to 192 | – |
| CN[C@@]1(COc2cccnc2)C[C@H]1C.Cl.Cl (single isomer, unassigned) [20] | 69 to 72 | – |
| CN[C@@]1(COc2cccnc2)C[C@H]1C.Cl.Cl (single isomer, unassigned) [21] | 71 to 74 | – |
| CN[C@@]1(COc2cccnc2)C[C@@H]1C.Cl.Cl (single isomer, unassigned) [Example 2, (1S,2S)- or (1R,2R)-(−)-N,2-dimethyl-1-[(3-pyridinyloxy)methyl]cyclopropanamine Dihydrochloride] | 174 to 176 | pKi [1]: 7.16; difference (T2−T1) between recognition times (Wistar rat): 38 s; increase in the release of acetylcholine in the prefrontal cortex [2]: +86% |
| C[C@H]1C[C@@]1(N)COc1ccc(Cl)nc1.Cl (single isomer, unassigned) [Example 15, (1S,2S)- or (1R,2R)-(+)-1-{[(6-chloro-3-pyridinyl)oxy]methyl}-2-methylcyclopropanamine Hydrochloride] | – | reduction of the number of abdominal cramps caused by PBQ (NMRI mouse): −69% |

Further lines, with some results ahead:

| melting point [°C] | SMILES | further results |
| --- | --- | --- |
| 136 to 138 | C[C@H]1C[C@]1(COc1ccc(Cl)nc1)N(C)C.Cl (single isomer, unassigned) | – |
| < 75 | C[C@H]1C[C@@]1(N)COc1cccnc1.Cl.Cl (single isomer, unassigned) | – |
| 124 to 127 | CNC1(COc2cccnc2)CC1(C)C.O=C(O)/C=C/C(=O)O.O=C(O)/C=C/C(=O)O (single isomer, unassigned) [26] | – |
| 115 to 118 | CNC1(COc2cccnc2)CC1(C)C.O=C(O)/C=C/C(=O)O.O=C(O)/C=C/C(=O)O (single isomer, unassigned) [Example 27] | – |
